The subject of one data set is K562 cells. In words: NK cell cytotoxicity assay, K562 target cells. It counts as cell-based. Particulars: 4 hours. On the procedure:
(§1) NK Cell Cytotoxicity Assay: Cytotoxicity was determined using a flow cytometry based method based on a previously published method (Kim, et al. J Immunol Methods. 2007 Aug. 31; 325(1-2): 51-66). NK cells were co-cultured with e450-proliferation dye-labelled targets for 4 hours. CellEvent™ Caspase-3/7 Green Flow Cytometry Assay Kit (Lifer Technologies) was used to assay for cell death among target cells, and samples were read on a BD LSRFortessa cytometer. Killing of SKOV-3 targets was quantified using the Incucyte Zoom instrument. SKOV-3 cells were transiently transduced with NucLight-Red BacMam reagent (Essen Biosciences) and co-cultured with the indicated NK cell populations for 74 hours, with images taken on two hour intervals. Caspase 3/7 activity was monitored to indicate target cells undergoing apoptosis using the CellEvent™ Caspase-3/7 Green Detection Reagent. The number of target cells was normalized to SKOV-3 cells cultured alone, and targets undergoing apoptosis were quantified based on caspase 3/7 activity.
The ability of GSK3 inhibition to enhance cytotoxicity of NK cells isolated directly from donors was assessed using in vitro killing assays. […] depleted PBMC population was treated overnight with 10 ng/mL IL-15 only (primed), or a 7 day culture combination of 10 ng/mL IL-15 and 5 μM CHIR99021. The target cells for the killing assays included K562 cells, CD20+ Raji cells, HER2+ SKOV3 cells and HER2+A549 cells. The E:T (Effector:Target) ratio applied to each assay ranged from 0.1, 0.5, 1, 5 to 10. After the target cells were incubated with the differently treated NK cells for 4 hours, the respective percentage of specific killing (target cell lysis) was calculated. […] Raji cells are less prone to NK mediated cytotoxicity.
(§2) The ability of STING agonist to enhance cytotoxicity of GSK3i multiday modulated NK cells was assessed using in vitro killing assays. […]

Another data set has as its system KG-1 cells. The experiment in a line: NK cell cytotoxicity assay, KG-1 target cells. It counts as cell-based, human. Particulars: 1 μM STING agonist added to 7 day 10 ng/mL IL-15 + 5 μM CHIR99021 culture; 4 hours. On the procedure: as §1, §2
The test system of a further data set is NK cells. In words: 7 day NK culture with IL15, GSK3i and/or STING agonist: phenotype by flow cytometry. It counts as cell-based, human. On the procedure:
CD3/CD19 depleted PBMC were cultured for 7 days in the presence of 10 ng/ml IL15 and (1) DMSO (vehicle); (2) […] GSK3i (CHIR99021); (3) 1 μM STING agonist (ML RR-S2 CDA); or (4) […] GSK3i+1 μM STING agonist. On day 7, NK cell function and phenotype was assessed by intracellular cytokine staining, cytotoxicity assays, and flow cytometry. […] The frequency of CD107a+ NK cells after incubation with K562 cells was increased for cells cultured for 7 days with IL-15+GSK3i+STING agonist compared to cells cultured with IL-15+GSK3i only (FIG. 16C). Increased cell surface CD107a expression is associated with enhanced degranulation and cytotoxic potential of NK cells in the presence of STING agonist in combination with GSK3i.
Natural Killer (NK) cells recognize and destroy tumors and virus-infected cells in an antibody-independent manner. The regulation of NK cells is mediated by activating and inhibiting receptors on the NK cell surface. One important family of activating receptors is the natural cytotoxicity receptors (NCRs) which include NKp30, NKp44 and NKp46. The NCRs initiate tumor targeting by recognition of their specific ligands on cancer cells.

The next data set deals with Nalm6 cells. The experiment in a line: NK cell cytotoxicity assay, Nalm6 target cells. Particulars: 1 μM STING agonist added to 7 day 10 ng/mL IL-15 + 5 μM CHIR99021 culture; 4 hours. It counts as cell-based, human. On the procedure:
as §1, §2

Another data set deals with CD20+ Raji cells. In words: NK cell cytotoxicity assay, Raji target cells. Particulars: 4 hours; NK cells overnight IL-15 only or 7 days IL15 + GSK3i. It counts as cell-based, human. On the procedure: as §1
The ability of GSK3 inhibition to enhance cytotoxicity of NK cells isolated directly from donors was assessed using in vitro killing assays. […] After the target cells were incubated with the differently treated NK cells for 4 hours, the respective percentage of specific killing (target cell lysis) was calculated. […]

With `Nc1ncnc2c1ncn2[C@@H]1O[C@@H]2COP(O)(=S)O[C@@H]3C(O)[C@@H](COP(O)(=S)O[C@H]2[C@H]1O)O[C@H]3n1cnc2c(N)ncnc21` (some centres unmarked) [ML RR-S2 CDA], the “cytotoxicity (specific killing) against K562 cells” value in the data set with K562 cells (1 μM STING agonist added to 7 day 10 ng/mL IL-15 + 5 μM CHIR99021 culture) is given as “enhanced”. The “cytotoxicity (specific killing) against KG-1 cells” value in the data set with KG-1 cells is on record as “enhanced”. In addition, the “effect on adaptive NK phenotype and total NK number” value in the data set on NK cells (7 days, 10 ng/ml IL15, 1 μM STING agonist) is reported as “limited effect”. The “total CD57+NK number” value with NK cells (FIG. 15A) is given as “limited effect”. For the same compound, the “CD57+NKG2C+NK phenotype” value in the data set on NK cells (FIG. 15B) is “limited effect”. Moreover, the “cytotoxicity (specific killing) against Nalm6 cells” value with Nalm6 cells is given as “enhanced”.
Consider “IL15: recombinant human IL-15, cytokine used alone as comparator culture (10 ng/mL)”, for which the “E:T50, Raji cells” value in the data set on CD20+ Raji cells was roughly 100. Besides, the “E:T50 (E:T ratio when there is 50% of target cell lysis), K562 killing assay” value in the data set with K562 cells (NK cells overnight 10 ng/mL IL-15 only or 7 day IL-15 + 5 μM CHIR99021) is given as “about 10”.

The values above are taken from patent US12281329B2, “Compositions and methods for immune cell modulation in adoptive immunotherapies” (Fate Therapeutics, Inc., priority 2016, dated 2025).
